Data published in patent publication US7314716B2, “Gustducin γ subunit materials and methods” (Mount Sinai School of Medicine, priority 1999, dated 2008).

Tests used:
murine taste tissue [1] = test: Rapid time course quench-flow IP3 generation in murine taste tissue; format: biochemical, mouse; conditions: addition to murine taste tissue homogenate supernatant
Experimental: To confirm that gustducin γ subunit does indeed function in taste transduction rapid time course quench-flow experiments were carried out essentially as described in Tarelius et al., pp. 193–202 in Spielman et al., Eds., Experimental Cell Biology of Taste and Olfaction. Current Techniques & Protocols, CRC Press, Boca Raton (1995). […] Furthermore, it has been shown that the denatonium response depends upon a novel phospholipase C (PLC) β2 isotype specifically expressed in taste receptor cells.
Tongues were excised from 6 to 8 week old female SWR mice, and lingual papillae removed. One vallate and two foliate papillae and nongustatory control tissue from the dorsal eminence of the peeled epithelium were placed in ice-cold MOPS buffer pH 6.9 (50 mM MOPS, 100 mM NaCl, 0.081 mM CaCl2 and 2.5 mM MgCl2), containing 10 mM EGTA, 1 mM DTT, and a protease inhibitor cocktail [1 mg/ml, specific for serine, cysteine, aspartic and metallo-proteinases (Sigma)]. Tissue collected from twenty-five tongues was homogenized in MOPS-EGTA buffer pH 6.9, without the enzyme inhibitors, and centrifuged (1000×g for 20 min. at 4° C.). The recovered supernatant (at a protein concentration of about 30 μg/ml), was used for rapid kinetic experiments. […]

murine taste tissue [2] = conditions: shown previously; cited from earlier work
gustducin α subunit = test: Trypsin sensitivity assay of gustducin α subunit activation by denatonium-stimulated taste membranes; format: biochemical
Experimental: To confirm this idea, yet another trypsin sensitivity assay was utilized.
Five μl aliquots of in vitro translated gustducin α subunit were incubated with 5 μg of purified taste membranes or control non-taste membranes, 0.1 mM GDP, 1 μM GTPγS, with or without 5 mM of the bitter compound denatonium, plus a 10 μl aliquot of cotranslated β1/gustducin γ subunit or β2/γ2 dimer, or 10 μl rabbit reticulocyte lysate (the minus βγ control) for 1 hour at 30° C., followed by digestion with trypsin as described in Ming et al., Proc. Natl. Acad. Sci. USA, 95: 8933–8938 (1998).

[3] = taste receptor-containing membranes stimulated by 5 mM denatonium

Row | Molecule | generation of IP3 relative to basal level (murine taste tissue [1]) | generation of IP3 in control non-taste tissue (murine taste tissue [2]) | enhancement of activation of gustducin α subunit (gustducin α subunit; control non-taste membranes) | enhancement of activation of gustducin α subunit (gustducin α subunit; [3])
1 | CC[N+](CC)(CC(=O)Nc1c(C)cccc1C)Cc1ccccc1 [denatonium benzoate] | slightly more than twice the basal level | not in control non-taste tissue | – | –
2 | CC(=O)OC[C@H]1O[C@@](COC(C)=O)(O[C@H]2O[C@H](COC(C)=O)[C@@H](OC(C)=O)[C@H](OC(C)=O)[C@H]2OC(C)=O)[C@@H](OC(C)=O)[C@@H]1OC(C)=O [sucrose octa-acetate] | – | not in control non-taste tissue | – | –
3 | β1/gustducin γ subunit: cotranslated β1/gustducin γ subunit dimer | – | – | did not enhance activation | enhanced activation
4 | β2/γ2: cotranslated β2/γ2 dimer [reference compound] | – | – | – | did not enhance activation
